From ChEMBL document CHEMBL5329224, “Structure-Based Design and Evaluation of Reversible KRAS G13D Inhibitors” (ACS Med Chem Lett, 2024)

Assays:
GTPase KRas = GTPase KRas (Homo sapiens, UniProt P01116, G13D); assay: Inhibition of Biotinylated KRAS G13D mutant (unknown origin) incubated for 20 mins in presence of BODIPY-GDP by HTRF assay
[1] = Selectivity ratio of IC50 for inhibition of Biotinylated KRAS G13D mutant (unknown origin) to IC50 for inhibition of Biotinylated wild type KRAS (unknown origin)
[2] = Dissociation constant, pKa of compound; format: physicochemical
HCT-116 = assay: Antiproliferative activity against human HCT-116 cells assessed as cell growth inhibition incubated for 7 days by Cell Titer-Glo luminescent assay; format: functional, cell-based; conditions: HCT-116, 168 h
[3] = Half life in CD-1 mouse at 1 mg/kg,iv measured upto 9 hrs by LC-MS/MS analysis; format: ADME, organism-based; conditions: in vivo
[4] = Volume of distribution at steady state in CD-1 mouse at 1 mg/kg,iv measured upto 9 hrs by LC-MS/MS analysis; format: ADME, organism-based; conditions: in vivo

GTPase KRas, sequence (P01116 whole entry G13D): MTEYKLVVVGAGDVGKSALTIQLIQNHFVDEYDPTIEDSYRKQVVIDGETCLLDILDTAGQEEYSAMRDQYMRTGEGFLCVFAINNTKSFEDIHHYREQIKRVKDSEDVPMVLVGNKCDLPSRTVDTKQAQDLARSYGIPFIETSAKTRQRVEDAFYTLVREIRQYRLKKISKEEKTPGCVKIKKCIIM

SMILES | IC50 (GTPase KRas) [nM] | Ratio IC50 [1] | also measured
Cc1cc(N)nc(-c2cc3nc(OC[C@@H]4CCCN4C)nc4c3c(c2Cl)OC[C@@H]2CN(C(=O)C3CCNCC3)CCN42)c1C(F)(F)F | 3200 | 2.2 | 
Cc1cc(N)nc(-c2cc3nc(OC[C@@H]4CCCN4C)nc4c3c(c2Cl)OC[C@@H]2CN(C(=O)CC[C@@H]3CCCCN3)CCN42)c1C(F)(F)F | 1700 | 2.5 | 
Cc1cc(N)nc(-c2c(Cl)c3c4c(ncnc4c2F)N2CCN(C(=O)/C=C/c4nccc5c4CNCC5)C[C@H]2CO3)c1C(F)(F)F | 2700 | 5.9 | 
C=C1CN2CCC[C@@]2(COc2nc(N3CCN(C(=O)/C=C/c4cccc5c4CN4CCC5C4)C[C@@H]3C)c3cc(Cl)c(-c4nc(N)cc(C)c4C(F)(F)F)c(F)c3n2)C1 (stereo in doubt; form 2) [listing 1 of 2 here] | 550 |  | 
C=C1CN2CCC[C@@]2(COc2nc(N3CCN(C(=O)/C=C/c4cccc5c4CN4CCC5C4)C[C@@H]3C)c3cc(Cl)c(-c4nc(N)cc(C)c4C(F)(F)F)c(F)c3n2)C1 (stereo in doubt; form 1) [listing 1 of 2 here] |  | 29 | 
C=C1CN2CCC[C@@]2(COc2nc3c4c(c(Cl)c(-c5nc(N)cc(C)c5C(F)(F)F)cc4n2)OC[C@@H]2CN(C(=O)/C=C/c4nccc5c4CNCC5)CCN32)C1 | 13 | 7.3 | 
C=C1CN2CCC[C@@]2(COc2nc(N3CCN(C(=O)/C=C/c4cc(CNC)ccn4)C[C@@H]3C)c3cc(Cl)c(-c4nc(N)cc(C)c4C(F)(F)F)c(F)c3n2)C1 | 530 | 5.7 | pKa [2]: 8.4
C=C1CN2CCC[C@@]2(COc2nc(N3CCN(C(=O)/C=C/c4cccc5c4CN4CCC5C4)C[C@@H]3C)c3cc(Cl)c(-c4nc(N)cc(C)c4C(F)(F)F)c(F)c3n2)C1 (stereo in doubt; form 2) [listing 2 of 2 here] |  | 27 | 
Cc1cc(N)nc(-c2cc3nc(OC[C@@H]4CCCN4C)nc4c3c(c2Cl)OC[C@@H]2CN(C(=O)CCC3(N)CCOC3)CCN42)c1C(F)(F)F (mixture of isomers) | 1300 | 2.5 | 
C=C1CN2CCC[C@@]2(COc2nc3c4c(c(Cl)c(-c5nc(N)cc(C)c5C(F)(F)F)c(F)c4n2)OC[C@@H]2CN(C(=O)/C=C/c4nccc5c4CNCC5)CCN32)C1 | 1.5 |  | IC50 (HCT-116): 6100 nM; t1/2 [3]: 3.2 h; Vdss [4]: 0.42 L/kg
C=C1CN2CCC[C@@]2(COc2nc(N3CCN(C(=O)/C=C/c4cc(CN5CCOCC5)ccn4)C[C@@H]3C)c3cc(Cl)c(-c4nc(N)cc(C)c4C(F)(F)F)c(F)c3n2)C1 | 4.1 | 1.2 | pKa [2]: 5.4
Cc1cc(N)nc(-c2cc3nc(OC[C@@H]4CCCN4C)nc4c3c(c2Cl)OC[C@@H]2CN(C(=O)[C@H](C)N(C)C)CCN42)c1C(F)(F)F | 8200 | 0.94 | 
Cc1cc(N)nc(-c2cc3nc(OC[C@@H]4CCCN4C)nc4c3c(c2Cl)OC[C@@H]2CN(C(=O)CC3CC5(CCC5)CN3)CCN42)c1C(F)(F)F (mixture of isomers) | 9000 | 1.1 | 
Cc1cc(N)nc(-c2cc3nc(OC[C@@H]4CCCN4C)nc4c3c(c2Cl)OC[C@@H]2CN(C(=O)C3CC35CCNCC5)CCN42)c1C(F)(F)F (mixture of isomers) | 2400 | 2.1 | 
C=C1CN2CCC[C@@]2(COc2nc(N3CCN(C(=O)/C=C/c4cccc5c4CNC(C)(C)C5)C[C@@H]3C)c3cc(Cl)c(-c4nc(N)cc(C)c4C(F)(F)F)c(F)c3n2)C1 | 460 | 16 | 
Cc1cc(N)nc(-c2cc3nc(OC[C@@H]4CCCN4C)nc4c3c(c2Cl)OC[C@@H]2CN(C(=O)/C=C/c3nccc5c3CNCC5)CCN42)c1C(F)(F)F | 180 | 6.1 | 
C=C1CN2CCC[C@@]2(COc2nc(N3CCN(C(=O)/C=C/c4cccc5c4CN4CCC5C4)C[C@@H]3C)c3cc(Cl)c(-c4nc(N)cc(C)c4C(F)(F)F)c(F)c3n2)C1 (stereo in doubt; form 1) [listing 2 of 2 here] | 410 |  | 
Cc1cc(N)nc(-c2cc3nc(OC[C@@H]4CCCN4C)nc4c3c(c2Cl)OC[C@@H]2CN(C(=O)C3CC35CNC5)CCN42)c1C(F)(F)F (mixture of isomers) | 2400 | 1.3 | 

SMILES | IC50 (GTPase KRas) [nM] | Ratio IC50 [1] | also measured
COC1CC(N)(C(=O)N2CCN3c4nc(OC[C@@H]5CCCN5C)nc5cc(-c6nc(N)cc(C)c6C(F)(F)F)c(Cl)c(c45)OC[C@@H]3C2)C1 (mixture of isomers) | 880 | 1.5 | 
C=C1CN2CCC[C@@]2(COc2nc(N3CCN(C(=O)/C=C/c4cc(C5CCN(C)CC5)c(C)cn4)C[C@@H]3C)c3cc(Cl)c(-c4nc(N)cc(C)c4C(F)(F)F)c(F)c3n2)C1 | 340 | 15 | 
Cc1cc(N)nc(-c2cc3nc(OC[C@@H]4CCCN4C)nc4c3c(c2Cl)OC[C@@H]2CN(C(=O)C#CC3CCNC3)CCN42)c1C(F)(F)F (mixture of isomers) | 1600 | 2.3 | 
C=C1CN2CCC[C@@]2(COc2nc(N3CCN(C(=O)/C=C/c4cc(CN(C)C)c(C)cn4)C[C@@H]3C)c3cc(Cl)c(-c4nc(N)cc(C)c4C(F)(F)F)c(F)c3n2)C1 | 520 | 9.2 | 
Cc1cc(N)nc(-c2cc3nc(OC[C@@H]4CCCN4C)nc4c3c(c2Cl)OC[C@@H]2CN(C(=O)C3CCC5(CNC5)O3)CCN42)c1C(F)(F)F (mixture of isomers) | 1600 | 2.5 | 
Cc1cc(N)nc(-c2cc3nc(OC[C@@H]4CCCN4C)nc4c3c(c2Cl)OC[C@@H]2CN(C(=O)CCC3CCNC3)CCN42)c1C(F)(F)F (mixture of isomers) | 2100 | 2 | 
Cc1cc(N)nc(-c2cc3nc(OC[C@@H]4CCCN4C)nc4c3c(c2Cl)OC[C@@H]2CN(C(=O)CC[C@H]3CCCCN3)CCN42)c1C(F)(F)F | 2000 | 2.3 | 
Cc1cc(N)nc(-c2cc3nc(OC[C@@H]4CCCN4C)nc4c3c(c2Cl)OC[C@@H]2CN(C(=O)CCN)CCN42)c1C(F)(F)F | 2700 | 2.5 | 
Cc1cc(N)nc(-c2cc3nc(OC[C@@H]4CCCN4C)nc4c3c(c2Cl)OC[C@@H]2CN(C(=O)C3(N)CC3)CCN42)c1C(F)(F)F | 550 | 1.8 | 
Cc1cc(N)nc(-c2cc3nc(OC[C@@H]4CCCN4C)nc4c3c(c2Cl)OC[C@@H]2CN(C(=O)C[C@H]3CCC35CNC5)CCN42)c1C(F)(F)F | 3500 | 1.1 | 
Cc1cc(N)nc(-c2cc3nc(OC[C@@H]4CCCN4C)nc4c3c(c2Cl)OC[C@@H]2CN(C(=O)CC[C@@]3(C)CCCN3)CCN42)c1C(F)(F)F | 1900 | 2.4 | 
Cc1cc(N)nc(-c2cc3nc(OC[C@@H]4CCCN4C)nc4c3c(c2Cl)OC[C@@H]2CN(C(=O)C3CC(N)CCO3)CCN42)c1C(F)(F)F (mixture of isomers) | 14000 | 0.41 | 
C=C1CN2CCC[C@@]2(COc2nc(N3CCN(C(=O)/C=C/c4cccc5c4CNCC5)C[C@@H]3C)c3cc(Cl)c(-c4nc(N)cc(C)c4C(F)(F)F)c(F)c3n2)C1 | 690 |  | IC50 (HCT-116): 2100 nM; t1/2 [3]: 7.6 h; Vdss [4]: 0.9 L/kg
Cc1cc(N)nc(-c2cc3nc(OC[C@@H]4CCCN4C)nc4c3c(c2Cl)OC[C@@H]2CN(C(=O)CC3CCNCC3)CCN42)c1C(F)(F)F | 4800 | 2 | 
C=C1CN2CCC[C@@]2(COc2nc3c4c(c(Cl)c(-c5nc(N)cc(C)c5C(F)(F)F)cc4n2)OC[C@@H]2CN(C(=O)/C=C/c4nccc5c4CN(C)CC5)CCN32)C1 | 49 | 0.88 | 
Cc1cc(N)nc(-c2cc3nc(OC[C@@H]4CCCN4C)nc4c3c(c2Cl)OC[C@@H]2CN(C(=O)C[C@@H]3CCNC3)CCN42)c1C(F)(F)F | 2600 | 2.1 | 
Cc1cc(N)nc(-c2cc3nc(OC[C@@H]4CCCN4C)nc4c3c(c2Cl)OC[C@@H]2CN(C(=O)[C@@H]3CC[C@H]3N)CCN42)c1C(F)(F)F | 3000 | 1.5 | 
C=C1CN2CCC[C@@]2(COc2nc(N3CCN(C(=O)/C=C/c4cc(CNC)c(C)cn4)C[C@@H]3C)c3cc(Cl)c(-c4nc(N)cc(C)c4C(F)(F)F)c(F)c3n2)C1 | 500 | 9.6 | 
